Test results: ChEMBL document CHEMBL1201862, “PubChem BioAssay data set” (2004)
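Five compound concentrations were applied to cells in 96-well plates for 48 hours; endpoints were derived by simple linear interpolation of the resulting dose-response curve. GI50 = concentration required for 50% inhibition of growth.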 Activity calls are given as the source filed them. Rule as the data show it: active = GI50 up to about 1.1 µM and inactive = higher.

Key:
Assay in all cases: NCI anticancer screen, dose series, 48 h
SF-295 = tested on: SF-295
SF-268 = tested on: SF-268
SK-MEL-28 = tested on: SK-MEL-28
HOP-62 = tested on: HOP-62
HL-60 = tested on: HL-60
TK-10 = tested on: TK-10
HCT-15 = tested on: HCT-15
OVCAR-4 = tested on: OVCAR-4
EKVX = tested on: EKVX
KM12 = tested on: KM12
A498 = tested on: A498
HOP-92 = tested on: HOP-92
SN12C = tested on: SN12C
SK-MEL-5 = tested on: SK-MEL-5
RXF 393 = tested on: RXF 393
OVCAR-8 = tested on: OVCAR-8
SNB-75 = tested on: SNB-75
NCI-H23 = tested on: NCI-H23
DMS-273 = tested on: DMS-273
NCI-H226 = tested on: NCI-H226
CAKI-1 = tested on: CAKI-1
HCT-116 = tested on: HCT-116
HCC 2998 = tested on: HCC 2998
NCI-H522 = tested on: NCI-H522
ACHN = tested on: ACHN
CCRF-CEM = tested on: CCRF-CEM
M19-MEL = tested on: M19-MEL
SR = tested on: SR
786-0 = tested on: 786-0
Malme-3M = tested on: Malme-3M
NCI-H460 = tested on: NCI-H460
UO-31 = tested on: UO-31
SK-MEL-2 = tested on: SK-MEL-2
SNB-19 = tested on: SNB-19
MOLT-4 = tested on: MOLT-4
K562 = tested on: K562
LXFL 529 = tested on: LXFL 529
KM-20L2 = tested on: KM-20L2
DLD-1 = tested on: DLD-1
XF498 = tested on: XF498
A549 = tested on: A549
U-251 = tested on: U-251
SF-539 = tested on: SF-539
RXF 631 = tested on: RXF 631
OVCAR-5 = tested on: OVCAR-5
M14 = tested on: M14
UACC-62 = tested on: UACC-62
HOP-18 = tested on: HOP-18
SW-620 = tested on: SW-620
HT-29 = tested on: HT-29
SK-OV-3 = tested on: SK-OV-3
UACC-257 = tested on: UACC-257
IGROV-1 = tested on: IGROV-1
DMS-114 = tested on: DMS-114
SNB-78 = tested on: SNB-78
COLO 205 = tested on: COLO 205
RPMI-8226 = tested on: RPMI-8226
OVCAR-3 = tested on: OVCAR-3
LOX IMVI = tested on: LOX IMVI

Structure (SMILES): CN(C)C(=S)/N=c1\ssc(=S)n1C1CCCCC1
- GI50 (SF-295): 60.5 µM (inactive)
- GI50 (SF-268): 32.4 µM (inactive)
- GI50 (SK-MEL-28): 36.1 µM (inactive)
- GI50 (HOP-62): > 100 µM (inactive)
- GI50 (HL-60): 11.2 µM (inactive)
- GI50 (TK-10): > 100 µM (inactive)
- GI50 (HCT-15): 33.1 µM
- GI50 (OVCAR-4): 39.4 µM (inactive)
- GI50 (EKVX): 45.7 µM (inactive)
- GI50 (KM12): 35.7 µM (inactive)
- GI50 (A498): 37.2 µM (inactive)
- GI50 (HOP-92): 35.2 µM (inactive)
- GI50 (SN12C): 29.4 µM (inactive)
- GI50 (SK-MEL-5): 12.4 µM (inactive)
- GI50 (RXF 393): 33.3 µM (inactive)
- GI50 (OVCAR-8): 21.4 µM (inactive)
- GI50 (SNB-75): 42.7 µM (inactive)
- GI50 (NCI-H23): 44 µM (inactive)
- GI50 (DMS-273): 28.2 µM (inactive)
- GI50 (NCI-H226): 52.5 µM (inactive)
- GI50 (CAKI-1): 33 µM (inactive)
- GI50 (HCT-116): 16.5 µM (inactive)
- GI50 (HCC 2998): 37.1 µM (inactive)
- GI50 (NCI-H522): 13.1 µM (inactive)
- GI50 (ACHN): 35.9 µM (inactive)
- GI50 (CCRF-CEM): 0.23 µM (active)
- GI50 (M19-MEL): 18.7 µM (inactive)
- GI50 (SR): 20.5 µM (inactive)
- GI50 (786-0): 17.1 µM (inactive)
- GI50 (Malme-3M): 23.4 µM (inactive)
- GI50 (NCI-H460): 18 µM (inactive)
- GI50 (UO-31): 61.1 µM (inactive)
- GI50 (SK-MEL-2): 52.8 µM (inactive)
- GI50 (SNB-19): 57.7 µM (inactive)
- GI50 (MOLT-4): 18.2 µM (inactive)
- GI50 (K562): 16.9 µM (inactive)
- GI50 (LXFL 529): 13.2 µM (inactive)
- GI50 (KM-20L2): 40.5 µM (inactive)
- GI50 (DLD-1): 21.5 µM (inactive)
- GI50 (XF498): 19.4 µM (inactive)
- GI50 (A549): 22.8 µM (inactive)
- GI50 (U-251): 17 µM (inactive)
- GI50 (SF-539): 20.7 µM (inactive)
- GI50 (RXF 631): 19.5 µM (inactive)
- GI50 (OVCAR-5): 74.1 µM (inactive)
- GI50 (M14): 14.7 µM (inactive)
- GI50 (UACC-62): 10.4 µM (inactive)
- GI50 (HOP-18): > 100 µM (inactive)
- GI50 (SW-620): 13.7 µM (inactive)
- GI50 (HT-29): 35.7 µM (inactive)
- GI50 (SK-OV-3): > 100 µM (inactive)
- GI50 (UACC-257): 22.4 µM (inactive)
- GI50 (IGROV-1): 98.9 µM (inactive)
- GI50 (DMS-114): 13.9 µM (inactive)

Structure (SMILES): Nn1c(-c2cccc(Cl)c2)nc2ccccc2c1=O
- GI50 (SF-295): > 100 µM (inactive)
- GI50 (SNB-78): > 100 µM (inactive)
- GI50 (SF-268): > 100 µM (inactive)
- GI50 (SK-MEL-28): > 100 µM (inactive)
- GI50 (HOP-62): > 100 µM (inactive)
- GI50 (COLO 205): > 100 µM (inactive)
- GI50 (HL-60): > 100 µM (inactive)
- GI50 (TK-10): > 100 µM (inactive)
- GI50 (HCT-15): > 100 µM
- GI50 (RPMI-8226): > 100 µM (inactive)
- GI50 (OVCAR-4): > 100 µM (inactive)
- GI50 (EKVX): > 100 µM (inactive)
- GI50 (KM12): > 100 µM (inactive)
- GI50 (A498): > 100 µM (inactive)
- GI50 (HOP-92): > 100 µM (inactive)
- GI50 (SN12C): > 100 µM (inactive)
- GI50 (SK-MEL-5): > 100 µM (inactive)
- GI50 (OVCAR-8): > 100 µM (inactive)
- GI50 (SNB-75): > 100 µM (inactive)
- GI50 (NCI-H23): > 100 µM (inactive)
- GI50 (DMS-273): > 100 µM (inactive)
- GI50 (NCI-H226): > 100 µM (inactive)
- GI50 (CAKI-1): > 100 µM (inactive)
- GI50 (HCT-116): > 100 µM (inactive)
- GI50 (HCC 2998): > 100 µM (inactive)
- GI50 (NCI-H522): > 100 µM (inactive)
- GI50 (ACHN): > 100 µM (inactive)
- GI50 (CCRF-CEM): 51.5 µM (inactive)
- GI50 (786-0): > 100 µM (inactive)
- GI50 (Malme-3M): > 100 µM (inactive)
- GI50 (NCI-H460): > 100 µM (inactive)
- GI50 (UO-31): > 100 µM (inactive)
- GI50 (SK-MEL-2): > 100 µM (inactive)
- GI50 (SNB-19): > 100 µM (inactive)
- GI50 (MOLT-4): 60.1 µM (inactive)
- GI50 (K562): > 100 µM (inactive)
- GI50 (LXFL 529): > 100 µM (inactive)
- GI50 (KM-20L2): > 100 µM (inactive)
- GI50 (DLD-1): > 100 µM (inactive)
- GI50 (XF498): 23.5 µM (inactive)
- GI50 (A549): > 100 µM (inactive)
- GI50 (U-251): > 100 µM (inactive)
- GI50 (SF-539): > 100 µM (inactive)
- GI50 (RXF 631): > 100 µM (inactive)
- GI50 (OVCAR-5): > 100 µM (inactive)
- GI50 (M14): > 100 µM (inactive)
- GI50 (UACC-62): > 100 µM (inactive)
- GI50 (HOP-18): 68.5 µM (inactive)
- GI50 (SW-620): > 100 µM (inactive)
- GI50 (HT-29): > 100 µM (inactive)
- GI50 (OVCAR-3): > 100 µM (inactive)
- GI50 (SK-OV-3): > 100 µM (inactive)
- GI50 (UACC-257): > 100 µM (inactive)
- GI50 (IGROV-1): > 100 µM (inactive)
- GI50 (DMS-114): > 100 µM (inactive)

Structure (SMILES): N/N=C1\C(=O)N(C2CCCCC2)C(=O)C1C(=O)NC1CCCCC1 (stereo not given)
- GI50 (SF-295): > 100 µM (inactive)
- GI50 (SNB-78): 43.1 µM (inactive)
- GI50 (SF-268): > 100 µM (inactive)
- GI50 (SK-MEL-28): 81.8 µM (inactive)
- GI50 (HOP-62): > 100 µM (inactive)
- GI50 (COLO 205): > 100 µM (inactive)
- GI50 (HL-60): 26.2 µM (inactive)
- GI50 (HCT-15): > 100 µM
- GI50 (RPMI-8226): > 100 µM (inactive)
- GI50 (OVCAR-4): > 100 µM (inactive)
- GI50 (EKVX): > 100 µM (inactive)
- GI50 (KM12): > 100 µM (inactive)
- GI50 (A498): > 100 µM (inactive)
- GI50 (HOP-92): > 100 µM (inactive)
- GI50 (SN12C): 31.6 µM (inactive)
- GI50 (SK-MEL-5): 33.7 µM (inactive)
- GI50 (OVCAR-8): > 100 µM (inactive)
- GI50 (SNB-75): 56.4 µM (inactive)
- GI50 (NCI-H23): > 100 µM (inactive)
- GI50 (NCI-H226): > 100 µM (inactive)
- GI50 (CAKI-1): > 100 µM (inactive)
- GI50 (HCT-116): > 100 µM (inactive)
- GI50 (HCC 2998): > 100 µM (inactive)
- GI50 (NCI-H522): > 100 µM (inactive)
- GI50 (ACHN): > 100 µM (inactive)
- GI50 (CCRF-CEM): > 100 µM (inactive)
- GI50 (M19-MEL): > 100 µM (inactive)
- GI50 (SR): > 100 µM (inactive)
- GI50 (786-0): > 100 µM (inactive)
- GI50 (Malme-3M): > 100 µM (inactive)
- GI50 (NCI-H460): > 100 µM (inactive)
- GI50 (UO-31): > 100 µM (inactive)
- GI50 (SK-MEL-2): 28.9 µM (inactive)
- GI50 (SNB-19): > 100 µM (inactive)
- GI50 (MOLT-4): > 100 µM (inactive)
- GI50 (K562): > 100 µM (inactive)
- GI50 (LXFL 529): > 100 µM (inactive)
- GI50 (KM-20L2): 20.7 µM (inactive)
- GI50 (DLD-1): > 100 µM (inactive)
- GI50 (XF498): > 100 µM (inactive)
- GI50 (A549): > 100 µM (inactive)
- GI50 (LOX IMVI): > 100 µM (inactive)
- GI50 (U-251): > 100 µM (inactive)
- GI50 (SF-539): > 100 µM (inactive)
- GI50 (RXF 631): > 100 µM (inactive)
- GI50 (OVCAR-5): > 100 µM (inactive)
- GI50 (M14): > 100 µM (inactive)
- GI50 (UACC-62): > 100 µM (inactive)
- GI50 (HOP-18): > 100 µM (inactive)
- GI50 (SW-620): > 100 µM (inactive)
- GI50 (HT-29): > 100 µM (inactive)
- GI50 (OVCAR-3): 21 µM (inactive)
- GI50 (SK-OV-3): 47.5 µM (inactive)
- GI50 (UACC-257): 87.9 µM (inactive)
- GI50 (IGROV-1): > 100 µM (inactive)
- GI50 (DMS-114): > 100 µM (inactive)
